Results reported in ChEMBL document CHEMBL1128914, “Suppression of morphine and cocaine self-administration in rats by a mixed mu antagonist-kappa agonist (N-CBM-TAMO) and a long-acting selective D1 antagonist (AS-300)” (Bioorg Med Chem Lett, 1996).

What was measured:
Mus musculus = experiment: Compound was tested for its activity using mouse writhing assay after icv administration.; assay type: functional
Mu-type opioid receptor = Mu-type opioid receptor (Bos taurus, UniProt P79350); experiment: Compound was tested for binding activity against mu opioid receptor in bovine striatal membranes using 0.25 nM [3H]DAMGO as the radioligand.; assay type: cell membranes, Striatum, Membrane
D(2) dopamine receptor = D(2) dopamine receptor (Rattus norvegicus, UniProt P61169); experiment: Compound was tested for binding affinity against Dopamine receptor D2 using 10 nM [3H]N-methyl-spiperone as the radioligand.
D(1A) dopamine receptor = D(1A) dopamine receptor (Rattus norvegicus, UniProt P18901); experiment: Compound was tested for binding affinity against Dopamine receptor D1 using 1 nM [3H]SCH-23390 as the radioligand.
Chain of D(1A) dopamine receptor (P18901 whole entry): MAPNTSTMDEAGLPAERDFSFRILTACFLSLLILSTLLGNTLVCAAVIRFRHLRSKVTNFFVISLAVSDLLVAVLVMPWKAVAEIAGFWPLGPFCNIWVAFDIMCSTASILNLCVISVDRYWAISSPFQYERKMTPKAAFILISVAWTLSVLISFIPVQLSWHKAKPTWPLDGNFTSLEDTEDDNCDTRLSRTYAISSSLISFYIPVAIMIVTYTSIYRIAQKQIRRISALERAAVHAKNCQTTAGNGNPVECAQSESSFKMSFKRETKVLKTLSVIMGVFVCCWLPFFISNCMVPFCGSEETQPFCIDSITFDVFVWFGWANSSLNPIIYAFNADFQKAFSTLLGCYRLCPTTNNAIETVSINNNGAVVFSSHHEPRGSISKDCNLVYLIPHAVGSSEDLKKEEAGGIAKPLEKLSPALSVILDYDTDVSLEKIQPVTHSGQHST

Chain of D(2) dopamine receptor (P61169 whole entry): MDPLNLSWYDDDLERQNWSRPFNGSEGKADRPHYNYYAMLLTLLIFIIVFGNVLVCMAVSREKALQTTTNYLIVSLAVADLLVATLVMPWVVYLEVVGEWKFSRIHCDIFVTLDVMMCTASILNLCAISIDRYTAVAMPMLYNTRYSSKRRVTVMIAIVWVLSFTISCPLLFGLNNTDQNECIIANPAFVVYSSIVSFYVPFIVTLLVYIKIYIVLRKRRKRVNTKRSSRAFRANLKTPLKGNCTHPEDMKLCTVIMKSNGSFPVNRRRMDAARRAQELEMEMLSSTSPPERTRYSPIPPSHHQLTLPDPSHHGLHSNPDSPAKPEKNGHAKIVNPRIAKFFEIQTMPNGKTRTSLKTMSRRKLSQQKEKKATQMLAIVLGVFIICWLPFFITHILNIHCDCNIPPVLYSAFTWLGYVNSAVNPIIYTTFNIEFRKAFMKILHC
Chain of Mu-type opioid receptor (P79350 whole entry): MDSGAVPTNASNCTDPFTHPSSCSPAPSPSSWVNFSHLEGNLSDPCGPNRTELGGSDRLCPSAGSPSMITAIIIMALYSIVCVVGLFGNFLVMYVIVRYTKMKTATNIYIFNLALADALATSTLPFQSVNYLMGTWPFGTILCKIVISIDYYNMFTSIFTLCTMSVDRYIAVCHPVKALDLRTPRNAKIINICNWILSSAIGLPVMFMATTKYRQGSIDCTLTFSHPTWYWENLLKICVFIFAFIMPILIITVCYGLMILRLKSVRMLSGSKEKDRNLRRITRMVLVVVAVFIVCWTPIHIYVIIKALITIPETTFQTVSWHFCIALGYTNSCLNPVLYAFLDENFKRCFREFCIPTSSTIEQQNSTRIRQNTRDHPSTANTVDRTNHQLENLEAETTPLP

| IC50 (D(2) dopamine receptor) [nM] | IC50 (D(1A) dopamine receptor) [nM] | Structure (SMILES) | D50 (Mus musculus) [nM] | IC50 (Mu-type opioid receptor) [nM] |
| --- | --- | --- | --- | --- |
| – | – | O=C(CSSCC(=O)N[C@@]12CCC(=O)[C@@H]3Oc4c(O)ccc5c4[C@@]31CCN(CC1CCC1)[C@@H]2C5)N[C@@]12CCC(=O)[C@@H]3Oc4c(O)ccc5c4[C@@]31CCN(CC1CCC1)[C@@H]2C5 | 0.08 | 1.95 |
| 978 | 2.13 | CN1CCc2cc(Cl)c(O)cc2C(c2cccc(N=C=S)c2)C1 (centres undefined) | – | – |
